# Values quoted from earlier work as cited in PMC11272189, “PNA5, A Novel Mas Receptor Agonist, Improves Neurovascular and Blood-Brain-Barrier Function in a Mouse Model of Vascular Cognitive Impairment and Dementia” (Aging and Disease, 2024).
# System: healthy control mice
# Conditions: daily injections at 1mg/kg/day
# Method: All use of animals in this study conformed to the guidelines approved by the Institutional Animal Care and Use Committee at the University of Arizona and in accordance with the National Institutes of Health Guidelines for the Care and Use of Laboratory Animals. Both the number of animals used, and their suffering were minimized. The number of animals needed for each experiment was determined using a G*Power analysis. Importantly for the present study, we have shown in previously published studies that treatment of healthy control mice with daily injections of PNA5 or the native peptide ...
substance,measurement,value
"Angiotensin-(1-7) (DRVYIHP; Angiotensin 1-7; UniProt P01019 25-31, looked up) [Ang-(1-7), native peptide]","effect on heart function, cognitive function or circulating cytokines",no effect
